biological target: GPR40 (Homo sapiens, UniProt O14842); assay: Cell-based aequorin assay (CHO cells stably expressing GPR40 and aequorin); set-up: expressed in transfected cells; host or cells: CHO cells stably transfected with GPR40 and aequorin; settings: activation of human GPR40, CHO cells, 0.01% HSA
Experimental: Briefly, the Aequorin assays were performed on doubly stable CHO cells expressing GPR40 and Aequorin DNA. […] The luminescence was recorded over a period of 20 seconds with a Microlumat luminometer (Berthold). […] The inositol phosphate assay was performed on an A9 cell line stably transfected with GPR40 (A9_GPR40). The cells were incubated with different concentrations of compounds and [^3H] inositol accumulation was measured after 1 hour.
Cell-based aequorin assays were employed to characterize the modulatory activity of compounds on the GPR40 signaling pathway. In an exemplary assay, CHO cells were stably transfected with both GPR40 and Aequorin (Euroscreen). Cells were detached from the tissue culture dish with 2 mL of trypsin (0.25%(w/v)). Trypsinization was halted with 28 mL of Hanks Buffered Salt Solution containing 20 mM Hepes (H/HBSS) and 0.01% fatty acid-free human serum albumin (HSA). Coelantrazine is added to 1 ug/mL, and the cells were incubated for 2 hours at room temperature. Compounds were dissolved in DMSO for preparation of 10 mM stock solutions. Compounds were diluted in H/HBSS containing 0.01% HSA. Serial dilutions of the test compounds were prepared to determine dose response.
Aequorin luminescence measurements were made using an EG&G Berthold 96-well luminometer, and the response was measured over a 20 second interval after cells and compounds were mixed. The maximum relative light units was plotted to determine dose response. The EC50 (effective concentration to reach 50% maximal response) was determined from the dose response plot.

Sequence of GPR40 (O14842 whole entry): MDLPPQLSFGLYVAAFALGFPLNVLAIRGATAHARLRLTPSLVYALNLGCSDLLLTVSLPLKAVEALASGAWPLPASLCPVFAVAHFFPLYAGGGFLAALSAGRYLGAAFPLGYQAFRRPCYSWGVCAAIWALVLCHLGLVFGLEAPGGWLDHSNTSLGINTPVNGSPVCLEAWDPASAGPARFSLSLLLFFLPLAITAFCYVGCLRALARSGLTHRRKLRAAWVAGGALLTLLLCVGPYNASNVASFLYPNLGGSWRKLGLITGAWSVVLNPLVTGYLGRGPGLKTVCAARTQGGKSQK

Compound	EC50
CCC[C@H](CC(=O)O)c1cccc(OCc2ccc(-c3cc(OC)ccc3F)c(OC3CCCCO3)c2)c1 (single isomer, unassigned) [Example 67.14, (3R)-3-(3-(((2′-Fluoro-5′-(methyloxy)-2-(tetrahydro-2H-pyran-2-yloxy)-1,1′-biphenyl-4-yl)methyl)oxy)phenyl)hexanoic acid or (3S)-3-(3-(((2′-fluoro-5′-(methyloxy)-2-(tetrahydro-2H-pyran-2-yloxy)-1,1′-biphenyl-4-yl)methyl)oxy)phenyl)hexanoic acid]	100 to 1000 nM
CC(C)(O)c1cccc(-c2ccc(COc3cccc([C@@H](CC(=O)O)C4CC4)c3)cc2[C@H]2CCCC2(C)C)c1 (single isomer, unassigned) [Example 66.76, (S)-3-(3-((S)-3-((S)-2,2-dimethylcyclopentyl)-4-(3-(2-hydroxypropan-2-yl)phenyl)benzyloxy)phenyl)-3-cyclopropylpropanoic acid or stereoisomer thereof]	1000 to 10000 nM
COc1ccc(F)c(-c2ccc(COc3cccc([C@@H](CC(=O)O)C4CC4)c3)cc2CN2CCCC2)c1 (single isomer, unassigned) [Example 66.65, (3S)-3-Cyclopropyl-3-(3-(((2′-fluoro-5′-(methyloxy)-2-(1-pyrrolidinylmethyl)-1,1′-biphenyl-4-yl)methyl)oxy)phenyl)propanoic acid or (3R)-3-cyclopropyl-3-(3-(((2′-fluoro-5′-(methyloxy)-2-(1-pyrrolidinylmethyl)-1,1′-biphenyl-4-yl)methyl)oxy)phenyl)propanoic acid]	1000 to 10000 nM
CC1(c2cccc(-c3ccc(COc4cccc(C(CC(=O)O)C5CC5)c4)cc3C3CCCC3(C)C)c2)OCCO1 (single isomer, unassigned) [Example 66.72, (S)-3-(3-((S)-3-((S)-2,2-Dimethylcyclopentyl)-4-(3-(2-methyl-1,3-dioxolan-2-yl)phenyl)benzyloxy)phenyl)-3-cyclopropylpropanoic acid or stereoisomer thereof]	1000 to 10000 nM
CCCC(CC(=O)O)c1cccc(OCc2ccc(-c3cc(OC)ccc3F)c(/C=C/C(C)(C)C)c2)c1 (single isomer, unassigned) [Example 67.4, (3R)-3-(3-(((2-((1E)-3,3-Dimethyl-1-butenyl)-2′-fluoro-5′-(methyloxy)-1,1′-biphenyl-4-yl)methyl)oxy)phenyl)hexanoic acid or (3S)-3-(3-(((2-((1E)-3,3-dimethyl-1-butenyl)-2′-fluoro-5′-(methyloxy)-1,1′-biphenyl-4-yl)methyl)oxy)phenyl)hexanoic acid]	100 to 1000 nM
CSc1cccc(-c2ccc(COc3cccc([C@H](C)CC(=O)O)c3)cc2C(C)(C)C)c1 (single isomer, unassigned) [Example 3, (3R)-3-(3-(((2-(1,1-Dimethylethyl)-3′-(methylsulfanyl)-1,1′-biphenyl-4-yl)methyl)oxy)phenyl)butanoic acid or (3S)-3-(3-(((2-(1,1-dimethylethyl)-3′-(methylsulfanyl)-1,1′-biphenyl-4-yl)methyl)oxy)phenyl)butanoic acid]	1000 to 10000 nM

Second part, the molecule after the results:

EC50	Compound
100 to 1000 nM	COc1ccc(F)c(-c2ccc(COc3cccc(C(CC(=O)O)CC4CC4)c3)cc2C2CCCC2(C)C)c1 (single isomer, unassigned) [Example 69.7]
100 to 1000 nM	COc1ccc(F)c(-c2ccc(COc3cccc(C(CC(=O)O)CC4CC4)c3)cc2CN2[C@H](C)CC[C@H]2C)c1 (single isomer, unassigned) [Example 69.47, (3R)-4-Cyclopropyl-3-(3-(((2-(((2R,5R)-2,5-dimethyl-1-pyrrolidinyl)methyl)-2′-fluoro-5′-(methyloxy)-1,1′-biphenyl-4-yl)methyl)oxy)phenyl)butanoic acid or (3S)-4-cyclopropyl-3-(3-(((2-(((2R,5R)-2,5-dimethyl-1-pyrrolidinyl)methyl)-2′-fluoro-5′-(methyloxy)-1,1′-biphenyl-4-yl)methyl)oxy)phenyl)butanoic acid]
100 to 1000 nM	COc1ccc(F)c(-c2ccc(COc3cccc(C(CC(=O)O)C4CC4)c3F)cc2C2CCCC2(C)C)c1 (single isomer, unassigned) [Example 83.17]
